Assay results reported in patent US20090047314A1, “MICROENCAPSULATION SYSTEMS AND APPLICATIONS OF SAME” (Centre National de la Recherche Scientifique (C.N.R.S.), priority 2003, published 2009).

Assay: Encapsulation of molecule in the beads (determination by HPLC)
Assay type: physicochemical
Settings: α-cyclodextrin/soya oil beads
Procedure: The procedure is carried out as described in Example 1, but using, as molecules of interest, molecules that are active in therapeutics or that can be used in cosmetics, such as pigments or dyes, vitamin E acetate, benzophenone or isotretinoin.
In addition, it was shown that 30% of vitamin E acetate is encapsulated (determination by HPLC).

fraction of molecule encapsulated in the beads: 30%
Structure (SMILES): CC(=O)Oc1c(C)c(C)c2c(c1C)CCC(C)(CCC[C@H](C)CCC[C@H](C)CCCC(C)C)O2 (stereo partly shown) [vitamin E acetate]
